# Columns and labels:
# Dahl salt-sensitive rats [1] = experiment: Chronic effects of 8-AG in Dahl salt-sensitive rats on high salt diet (MRI, organ histology); format: in vivo, rat; settings: high salt diet with 8AG for 40 days; independent veterinary pathology lab
# Text: (§1) While the genetic loss of PNPase activity is toxic and results in a compromised immune system, partial inhibition of PNPase by pharmacological administration is safe. The chronic effects of 8-AG have been examined in Dahl salt-sensitive rats, which is a model of genetic hypertension that is exacerbated by providing a high salt diet. […] Next, organs from these animals were examined histologically by an independent veterinary pathology lab.
# aged F344 rat retinae [2] = experiment: Immunofluorescence of GFAP and CD68 in aged F344 rat retinae; format: in vivo; settings: 5 mg/kg bw per day in drinking water for eight weeks from 22 months of age
# Procedure: Glial cells are activated upon photoreceptor degeneration, and retinal immune response is thought to contribute to photoreceptor degeneration as the disease progresses. Activated macrophages were reported to not only scavenge dead cells, but also can phagocytose living photoreceptors (McMenamin et al. Prog. Retin. Eye Res. 70, 85-98, doi:10.1016/j.preteyeres. 2018.12.002 (2019)).
# (§2) For treatment, female F344 rats were orally administered with 5 mg per kg body weight (bw) of 8-aminoguanine (8-AG) per day in the drinking water starting at 22-24 months of age for 8 weeks. Non-treated age-matched F344 rats and young adult F344 rats at 3-4 months of age were used as controls. RhoP^23H/+ mice were administered with 8-AG for 11 mg per kg bw per day by intraperitoneal injections starting from postnatal day (PND) 15 for five weeks. PBS treated Rho^P23H/+ and WT mice were used as controls.
# Eyes were enucleated by a surgical scissor cutting around the eyeball. Each eye was opened with a cut at the cornea side of the limbus, cut horizontally at the edge of the cornea for a circle, corneas removed and lens isolated. Eyecups were incubated in freshly prepared 4% paraformaldehyde for 2 hr. Fixed eyecups were dehydrated sequentially in 5, 10, 20 and 40% sucrose solutions in phosphate buffered saline (PBS) for 30 min each at room temperature. […]
# Rho^P23H/+ knock-in mice = experiment: Retinal morphology and scotopic ERG in Rho P23H/+ knock-in mice of retinitis pigmentosa; format: in vivo, mouse; settings: 11 mg per kg bw per day i.p. for five weeks from PND 15
# Procedure: as §2
# (§3) Electroretinogram (ERG): ERG was performed using the Celeris system (Diagnosys, Lowell, Mass., USA). Rats were placed in the dark overnight. During the ERG test, protect the rats from the light from the beginning to the finish of the scotopic test, only use the dim light to do the preparation in the dark room. Pupils were dilated with 1% tropicamide (Akorn, Lake Forest, Ill., USA) and 2.5% phenylephrine (Sigma). Rats were anesthetized with an intraperitoneal injection of ketamine at 80 mg/kg bw and xylazine at 7 mg/kg bw. Eyes were lubricated by a 0.3% hypromellose eye gel (Alcon, Fort Worth, Tex., USA). A heating pad was used to maintain body temperature at 37° C. Scotopic ERG responses of dark-adapted eyes to ten flashes from 0.0001 cd·s/m^2 to 100 cd·s/m^2 were recorded and averaged from three sweeps per flash intensity with inter-sweep intervals of 10 to 30 s. After exposed to 10 cd/m^2 illumination for 10 min, the photopic ERG responses were recorded from the light-adapted eyes in response to flashes from 0.01 cd·s/m^2 to 100 cd·s/m^2 in addition to a 10 cd/m^2 background light. P-values were calculated by a two-way ANOVA to determine the statistical significance between the response amplitudes in the 8-AG treated group and untreated group. Factor 1, treatment condition; and factor 2, flash intensity.
# Retinal histology and H&E staining: To examine the structure of the aging rats' retinas treated with 8-AG, the rats were euthanized, their eyes removed, and fixed in 4% paraformaldehyde and 1% glutaraldehyde before paraffin sectioning. […]
# aged F344 rat retinae [3] = experiment: Electroretinogram (ERG) of aged F344 rats, 0 vs 4 wks; format: in vivo; settings: 5 mg/kg bw per day in drinking water; 4 wks vs 0 wk
# Procedure: (§4) The potent efficacy of 8-AG in preserving retinal morphology and function of the aged F344 rats and Rho^P23H/+ mice were shown in FIGS. 11A-11D and […].
# as §3
# Aged Fischer 344 rats = experiment: Histological analysis of retinal outer nuclear layer (ONL) in aged Fischer 344 rats (Example 1); format: in vivo, rat
# Procedure: Aged Fischer 344 rats were treated with oral 8-AG (5 mg/kg/day for 6 weeks; drug delivered via the drinking water), or were a control, and the eyes of the rats were harvested for histological analysis of the retinal outer nuclear layer (ONL) and the results were compared with a corresponding histological analysis of young Fischer 344 rats (FIG. 8). With advance age, there is likely to be a loss of photoreceptors with associated thinning and eventual loss of the overlying ONL (see Schuman et al., Ophthalmology, 116:488-96.e2, 2009)
# The orientation of each eye was randomly embedded and sectioned. The fixed eyes were placed in a histology processing cassette for serial alcohol based dehydration. Dehydrated eyes were embedded in paraffin, and retinal cross sections were cut at 6 μm thickness. Retinal cross sections near the optic nerve were stained by hematoxylin and eosin (H&E). Images of H&E-stained retinal cross sections were collected under 4× and 20× objectives. […]
# In each retinal cross section image under the 20× objective, the outer nuclear layer (ONL) thickness was measured at 6 locations along the image to calculate the average ONL thickness. […]
# aged F344 rat retinae [4] = experiment: SD-OCT of ONL thickness in aged F344 rats, 0 vs 4 wks; format: in vivo
# Procedure: as §4
# Optical coherence tomography (OCT): To assess the 8-AG treatment on old F344 rats, ultrahigh-resolution SD-OCT (Bioptigen, Morrisville, N.C.) was performed for in vivo imaging of rats retinas. Pupils were dilated with 1% tropicamide (Akorn, Lake Forest, Ill., USA) and 2.5% phenylephrine (Sigma). Rats were anesthetized with an intraperitoneal injection of ketamine at 80 mg/kg bw and xylazine at 7 mg/kg bw. Eyes were lubricated by a 0.3% hypromellose eye gel (Alcon, Fort Worth, Tex., USA). A heating pad was used to maintain body temperature; the A scan/B scan ratio was set at 1200 lines. Five frames of OCT images scanned at 0° were acquired in the B-mode, averaged, and saved as pdf files. To measure changes to photoreceptors in the retinas assess the effect of 8-AG on retinal protection, the thickness of the ONL was measured along with the scanned SD-OCT image at 6 points from the temporal to nasal end of the retina. A graph of ONL thicknesses was plotted to obtain the means and standard error (SE) of the samples.
# animals = experiment: Observed toxicity in the animal experiments that were performed; format: in vivo
# Text: as §1
# Dahl salt-sensitive rats [5] = settings: high salt diet with 8AG for 40 days; vs untreated high-salt control; cited from earlier work
# aged F344 rat retinae [6] = experiment: Immunoblots of protein markers of mitochondria function, oxidative stress and apoptosis in aged F344 rat retinae; format: in vivo
# Procedure: A range of protein markers of mitochondria function and apoptosis was probed in the retinae of young, aged and 8-AG treated aged F344 rat retinae, as well as the mitochondrial superoxide dismutase 2 (SOD2), an enzyme protecting tissue from damage by ROS, using immunoblots. […] The fact that chronic 8-AG […] retinal levels of SOD2 is consistent with reduced retinal oxidative stress in 8-AG-treated aged rats.
# as §2
# Western Immunoblotting: The freshly isolated retinae were homogenized using Lysing Matrix D in a FASTPREP-24™ instrument (MP Biomedicals) in HBSS buffer (5 mM KCl, 0.3 mM KH2PO4, 138 mM NaCl, 4 mM NaHCO3, 0.3 mM Na2HPO4, 5.6 mM glucose, and 10 mM HEPES, pH 7.4) containing complete protease inhibitor cocktail (1 tablet/10 ml, Roche) and phosphatase inhibitor cocktail (MilliporeSigma, 1:100). After centrifugation (16200 g, 15 minutes at 4° C.), the membrane protein fraction was prepared by suspending the membrane pellets in lysis buffer containing 0.3M NaCl, 50 mM Tris-HCl (pH 7.6), and 0.5% Triton X-100, as well as the same concentration of protease inhibitors as above. The suspensions were incubated on ice and centrifuged (16200 g, 15 minutes at 4° C.). The protein concentrations of the combined supernatants were determined using the Pierce BCA protein assay (Thermo Fisher Scientific). Two μg of unheated total protein was loaded on a 4%-15% TGX Stain-Free SDS-PAGE gel (Bio-Rad). As a reliable loading control, total protein measurement per sample was determined using Bio-Rad Stain Free SDS-PAGE gel technology. UV-activated protein fluorescence was imaged on a ChemiDoc MP (Bio-Rad). The gel was electrotransferred to polyvinylidene fluoride membrane and immunoblotted with 1D4 anti-rhodopsin antibody (5 μg/mL). After washing in TBS-T, the membranes were incubated with secondary antibody, sheep anti-mouse HRP (Southern Biotech), developed using WESTERNBRIGHT® Quantum (Advansta), and imaged on a ChemiDoc MP (BioRad). The volume (intensity) of each protein species was determined and normalized to total protein using Image Lab software (Bio-Rad).
# aged F344 rat retinae [7] = experiment: Retinal morphology (H&E, rhodopsin immunofluorescence) in F344 rat model of age-related photoreceptor degeneration (Example 2); format: in vivo
# Procedure: To test the efficacy of 8-AG in photoreceptor degeneration, 8-AG was administered in two animal models including the F344 rat of age-related photoreceptor degeneration, and the Rho^P23H/+ knock-in mice of retinitis pigmentosa and examine the retinal morphology and function.
# as §2
# Eyes were enucleated by a surgical scissor cutting around the eyeball. Each eye was opened with a cut at the cornea side of the limbus, cut horizontally at the edge of the cornea for a circle, corneas removed and lens isolated. Eyecups were incubated in freshly prepared 4% paraformaldehyde for 2 hr. Fixed eyecups were dehydrated sequentially in 5, 10, 20 and 40% sucrose solutions in phosphate buffered saline (PBS) for 30 min each at room temperature. Finally, eyecups were incubated in a mixture of 40% sucrose in PBS and O.C.T. compound (FisherScientific, Houston, Tex. USA) at 3:7 volume ratio overnight at 4° C. before they are embedded in the same mixed solution in an orientation-specific manner and frozen in liquid nitrogen-bathed isobutene. A microtome made twelve-micron retinal cross-sections at −18° C. and those containing the optic nerve head were applied onto a SUPERFROST™ glass slide (FisherScientific, Houston, Tex. USA). These slides were then used for IHC.
# After rehydration and permeabilization in PBST for 15 min, retinal sections were incubated in 5% goat serum for 30 min, and then they were incubated with 5% goat serum containing the primary antibodies. […]
# [8] = 5 mg/kg bw per day in drinking water from 24 months, 4 wks compared to before treatment
# [9] = 5 mg per kg bw per day in drinking water for 8 weeks from 22 months of age, central, equatorial and peripheral sites, vs untreated age-matched group
smiles,measurement,setting,value
"Nc1nc2[nH]c(N)nc2c(=O)[nH]1 [8-AG, 8-aminoguanine]","microscopic alterations in heart, kidney, liver, aorta, adrenal gland (histology)",Dahl salt-sensitive rats [1],No treatment-related microscopic alterations
same,GFAP staining,aged F344 rat retinae [2],did not affect
same,number of CD68+ cells,aged F344 rat retinae [2],significantly reduced
same,ONL layer thickness,Rho^P23H/+ knock-in mice; H&E,thicker
same,scotopic ERG a-wave response,Rho^P23H/+ knock-in mice; vs vehicle control group,significantly higher
same,scotopic ERG b-wave response,Rho^P23H/+ knock-in mice; vs vehicle control group,significantly higher
same,photopic b wave responses,aged F344 rat retinae [3],did not affect
same,scotopic a-wave,aged F344 rat retinae [3],significantly increased
same,scotopic b-wave,aged F344 rat retinae [3],significantly increased
same,ONL preservation in retinal edges,"Aged Fischer 344 rats; oral 8-AG 5 mg/kg/day for 6 weeks via drinking water, edge of old retinae, retinal edges with preserved ONL",7 out of 8
same,"ONL thickness, effect of treatment (2-way ANOVA)","Aged Fischer 344 rats; oral 8-AG 5 mg/kg/day for 6 weeks, treated vs untreated old rats, independent of retinal location",significant
same,"ONL thickness, nasal side (SD-OCT)",aged F344 rat retinae [4]; [8],slight increase
same,"ONL thickness, temporal side (SD-OCT)",aged F344 rat retinae [4]; [8],no change
same,ONL at sites where it had disappeared before treatment (SD-OCT),"aged F344 rat retinae [4]; single exemplary retina, 4 wks of treatment",reappeared
same,toxicity,animals,no observed toxicity
same,strokes in the cerebral cortex and subcortical areas (MRI),Dahl salt-sensitive rats [5],protected from strokes
same,retinal levels of SOD2,"aged F344 rat retinae [6]; chronic oral 8-AG 5 mg/kg for 8 wks, immunoblot, aged rats",decreased
same,Rhodopsin levels (immunoblot),"aged F344 rat retinae [6]; oral 8-AG 5 mg/kg for 8 wks, aged F344 retina",restored
same,retinal MFN2 levels,"aged F344 rat retinae [6]; oral 8-AG 5 mg/kg for 8 wks, immunoblot",further increased
same,cleaved CASP3,"aged F344 rat retinae [6]; oral 8-AG 5 mg/kg for 8 wks, immunoblot, aged retinae",reduced
same,ONL thickness,aged F344 rat retinae [7]; [9],distinctively increased
same,OS/IS thickness,aged F344 rat retinae [7]; [9],distinctively increased
same,Rhodopsin levels (immunofluorescence),"aged F344 rat retinae [7]; 5 mg per kg bw per day in drinking water for 8 weeks, vs untreated aged retinae",increased
